Consider one molecule from patent publication US20260158149A1, “GLYCOSYLATED PRODRUGS” (UNIVERSITEIT LEIDEN, priority 2021, published 2026).

Like-named read-outs stand apart in the source and are kept apart here.

One series can be described thus: Larval body length. It counts as in vivo, Zebrafish (Danio rerio). The note with it: 5 dpf, treatment from 2 hpf. The method, then:
When the regeneration of the tail fins after wounding or the larval body length was used as a readout, chemical treatments of the embryos were started at 2 hours post fertilization (hpf) and continued until 5 dpf. During this period, solutions were refreshed daily. At 5 dpf, larvae were imaged using a LeicaMZ16FA fluorescence stereomicroscope supported by LAS 3.7 software, and the length of the larvae was measured using ImageJ software (15 larvae per treatment group). For the regeneration experiments, tail fins were amputated at 2 dpf and larvae were imaged at 5 dpf (15 larvae per treatment group). The newly grown tissue can be distinguished from the old tissue, enabling precise measurement of the size of the newly grown tissue using ImageJ software.

The test system of the next series is Gr. The series is described as follows: Transactivation activity of Gr in Tg(9xGCRE-HSV.UI23:EGFP) reporter line. It counts as in vivo, Zebrafish (Danio rerio). Particulars: 24 h treatment, 3 dpf larvae. The method, then:
The Tg(9xGCRE-HSV.UI23:EGFP)^ia20 zebrafish reporter line expresses enhanced green fluorescent protein (EGFP) under the control of a promoter containing an array of nine GREs. To study the effect of chemical treatments on the transactivation activity of the Gr, 15 zebrafish embryos per group (2 dpf) were treated with the indicated compounds for 24 hours. The transactivation activity of Gr induced by the treatments was assessed using a LeicaMZ16FA fluorescence stereomicroscope supported by LAS 3.7 software. The integrated intensity of the EGFP signal in the larvae was determined using ImageJ software.

The subject of series [1] is collagen antibody-induced arthritis (CAIA).
The test system of series [2] is il1b, il6, mmp9, mmp13, il8 mRNA. Kind of series: qPCR of pro-inflammatory genes after tail wounding. It counts as in vivo, Zebrafish (Danio rerio). An excerpt: For the tail fin amputation experiments, 3 days post fertilization (dpf) larvae from the Tg(mpx:GFP^i114/mpeg1:mCherry^umsF001) line were anesthetized in 0.02% buffered aminobenzoic acid ethyl ester (tricaine) in egg water and placed on a 2% agarose-coated petri dish. The tails were partially amputated with a 1 mm sapphire blade (World Precision Instruments) under a Leica M165C stereomicroscope (Leica Microsystems, Wetzlar, Germany). Chemical treatment (or 0.1% DMSO as vehicle treatment) was started at 2 h before the amputation (pretreatment) and was continued for 4 h after the tail fin amputation (20 larvae per group, unless indicated otherwise), at which time point the larvae were fixed in 4% paraformaldehyde (PFA) overnight at 4° C. and stored at 4° C. until further examination. In some experiments, a 24 h treatment with miglustat, ME656 or MZ31 was started at 2 dpf, and these treatments were continued during the pretreatment and treatment with the other chemicals. For imaging of larvae from the Tg(mpx:GFP^i114/mpeg1:mCherry^umsF001) line, a LeicaMZ16FA fluorescence stereomicroscope with LAS 3.7 software was used. Neutrophils were detected by GFP fluorescence and macrophages by mCherry fluorescence. The neutrophil numbers were determined by blinded manual counting in a pre-determined area. When larvae from gba2^−/− or gr^s357mutant lines were used, neutrophil labeling was performed with the TSA fluorescein detection kit (PerkinElmer) for specific staining of Myeloperoxidase (Mpx)-positive cells, following the manufacturer's instructions.
For experiments in zebrafish, gene expression was measured using 3 dpf embryos. Groups of 15 larvae were collected in TRIzol reagent (Invitrogen) and mRNA was isolated using the miRNeasy mini kit (Qiagen), according to the manufacturer's instructions. For experiments in HeLa cells, samples were collected from a single well from 6 well plates (80% confluent) in TRIzol reagent and mRNA was isolated using the RNeasy mini kit. Zebrafish and cells samples were treated with DNAse utilizing the DNA-Free™ kit (Ambion). The cDNA synthesis was performed using iScript cDNA synthesis kit (Bio-Rad) using 1 μg of RNA per sample. For qPCR, 10 μM of forward and 10 μM of reverse primer, 12.5 μL of iQ SYBR Green Supermix (Bio-Rad), and 2 μL of cDNA were added to the qPCR reaction mixture. […] The qPCR reactions were performed on a MyiQ-single-color real-time PCR detection system (Bio-Rad) with initial denaturation for 3 min at 95° C. and 40 cycles of 15 s at 95.5° C., 15 s at 60° C., and 30 s at 72° C. Cycle threshold values (Ct values, i.e. the cycle numbers at which a threshold value of the fluorescence intensity was reached) were determined for each sample. The gene expression level for each sample was normalized using the expression of ppial (peptidylprolyl isomerase Ab (cyclophilin A)) for zebrafish samples, and 18S rRNA for human cells. The fold change per sample (compared to the respective control group) was calculated using the ΔΔCt method.
A general note: Quantitative PCR measures a nucleic acid by following its amplification.

Series [3] can be described thus: Whole-body glucose measurement in larvae.
Procedure: Zebrafish embryos at 2 hpf received a chemical treatment, as indicated, with daily refreshment of the solutions, until 5 dpf. At 5 dpf, the larvae were collected in an Eppendorf tube and 100 μL of ice-cold glucose buffer was added to each sample. The larvae were homogenized using a BulletBlender® for 3 min at 8,000 rpm. The homogenates were then centrifuged at 4° C. for 8 min at 11000 rpm and the supernatant was stored at −20° C. Whole-body glucose concentrations were determined using a Glucose Colorimetric Assay kit (Cayman Chemical, USA), according to the manufacturer's instructions. In each experiment, three biological replicates were used for each treatment group, and the colorimetric assay was performed using technical duplicates.
The target in the next series is T1, human GR (Homo sapiens, UniProt P04150).
T1 sequence (P04150 1-777): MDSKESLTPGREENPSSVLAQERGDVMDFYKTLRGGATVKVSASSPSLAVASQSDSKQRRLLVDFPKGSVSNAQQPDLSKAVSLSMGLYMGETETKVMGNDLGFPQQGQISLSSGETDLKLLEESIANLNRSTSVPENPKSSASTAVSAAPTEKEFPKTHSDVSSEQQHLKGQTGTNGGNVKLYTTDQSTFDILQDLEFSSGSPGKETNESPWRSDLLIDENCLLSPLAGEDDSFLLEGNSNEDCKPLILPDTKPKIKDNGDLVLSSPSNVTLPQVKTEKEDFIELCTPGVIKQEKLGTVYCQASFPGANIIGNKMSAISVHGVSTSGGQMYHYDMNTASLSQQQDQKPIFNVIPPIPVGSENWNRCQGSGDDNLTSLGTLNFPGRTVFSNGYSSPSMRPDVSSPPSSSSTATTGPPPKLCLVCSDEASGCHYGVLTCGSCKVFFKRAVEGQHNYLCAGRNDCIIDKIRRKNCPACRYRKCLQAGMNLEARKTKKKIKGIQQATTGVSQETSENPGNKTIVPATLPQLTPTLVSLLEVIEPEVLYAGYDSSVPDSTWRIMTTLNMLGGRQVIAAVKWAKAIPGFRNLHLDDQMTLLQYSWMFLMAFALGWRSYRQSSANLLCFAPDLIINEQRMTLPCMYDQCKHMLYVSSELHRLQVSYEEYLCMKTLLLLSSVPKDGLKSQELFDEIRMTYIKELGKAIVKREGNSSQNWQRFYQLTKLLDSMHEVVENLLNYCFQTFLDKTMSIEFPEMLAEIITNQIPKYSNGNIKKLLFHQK
Kind of series: PolarScreen Glucocorticoid Receptor Competitor Assay.

`C[C@]12C=CC(=O)C=C1CC[C@@H]1[C@@H]2[C@@H](O)C[C@@]2(C)[C@H]1CC[C@]2(O)C(=O)CO[C@@H]1O[C@H](CO[C@@H]2O[C@H](CO)[C@@H](O)[C@H](O)[C@H]2O)[C@@H](O)[C@H](O)[C@H]1O` [GbPdn, 21-O-Gentobiose-Prednisolone]: the larval length result in the series “Larval body length” was “neither did it affect the length of the larvae”. For the same molecule, in the series on Gr, the “transactivation activity of Gr (GFP signal in GRE:GFP reporter fish line)” value is listed as “neither GPdn nor GbPdn induced the transactivation activity of the Gr”. Besides, the “day of maximal effect on arthritis score” value in series [1] (12.5 mg/kg i.p. daily from day 7) is 15 days; in series [1] (25 mg/kg i.p. daily from day 7), 14 days; in series [1] (50 mg/kg i.p. daily from day 7), 13 days. Moreover, the “arthritis scores after treatment initiation” value in series [1] (all dose groups, daily i.p. from day 7) is on record as “decreased rapidly after treatment initiation”. Also, the “expression of the pro-inflammatory genes il1b, il6 and il8” value in series [2] was “suppression of the expression”. For the same molecule, the “whole body glucose level” value in series [3] (5 dpf larvae treated from 2 hpf, non-wounded) is “did not affect the glucose or cortisol concentration”. Also, the “whole body glucose level under wounding conditions” value in series [3] (5 dpf larvae, wounded at 2 dpf) was “increase in glucose levels”. For the same molecule, the “decrease in the binding affinity relative to Pdn” value on human GR is reported as roughly 1400 fold.
